The nature of series [1]: Selectivity ratio for human HeLa cells over human HSF cells after 48 hrs. It is filed as ADME, cell-based. The conditions noted are these: HeLa cells versus HSF cells.
Series [2] is described as follows: Selectivity ratio for human HeLa cells over human HSF cells after 24 hrs. As to conditions: HeLa cells versus HSF cells. It is filed as ADME, cell-based.
Series [3] is described as follows: Selectivity ratio for human HeLa cells over human HSF cells after 72 hrs. The conditions noted are these: HeLa cells versus HSF cells. It is filed as ADME, cell-based.
Series [4] is described as follows: Cytotoxicity against human HSF cells at 50 ug/ml after 72 hrs by BrdU incorporation assay relative to control. It is filed as cell-based. As to conditions: read-out: GI.
For series [5], the system named is T47D. Description: Cytotoxicity against human T47D cells at 50 ug/ml after 72 hrs by BrdU incorporation assay relative to control. As to conditions: read-out: GI. It is filed as functional. Background: Uptake of a labelled nucleoside into DNA is a usual measure of proliferation.
The test system of series [6] is HeLa. The series is described as follows: Cytotoxicity against human HeLa cells at 50 ug/ml after 24 hrs by BrdU incorporation assay relative to control. It is filed as functional. As to conditions: read-out: GI.
A short description of series [7]: Cytotoxicity against human MM1S cells at 50 ug/ml after 72 hrs by BrdU incorporation assay relative to control. It is filed as functional. The conditions noted are these: MM1.S, read-out: GI.
Series [8] is described as follows: Cytotoxicity against human HSF cells at 50 ug/ml after 24 hrs by BrdU incorporation assay relative to control. It is filed as cell-based. The conditions noted are these: read-out: GI.
Series [9] in a line: Cytotoxicity against human HSF cells at 50 ug/ml by BrdU incorporation assay. It is filed as cell-based. The conditions noted are these: TDE = time-dependent effect.
For series [10], the system named is T47D. The series is described as follows: Cytotoxicity against human T47D cells at 50 ug/ml after 48 hrs by BrdU incorporation assay relative to control. It is filed as functional. As to conditions: read-out: GI.
Series [11] deals with HeLa. The series is described as follows: Cytotoxicity against human HeLa cells at 50 ug/ml after 72 hrs by BrdU incorporation assay relative to control. It is filed as functional. As to conditions: read-out: GI.
Series [12] is described as follows: Cytotoxicity against human MM1R cells at 50 ug/ml after 48 hrs by BrdU incorporation assay relative to control. The conditions noted are these: MM.1R, read-out: GI. It is filed as functional.
Series [13] has as its system HeLa. The series is described as follows: Cytotoxicity against human HeLa cells at 50 ug/ml after 48 hrs by BrdU incorporation assay relative to control. It is filed as functional. As to conditions: read-out: GI.
Series [14] is described as follows: Cytotoxicity against human MM1S cells at 50 ug/ml after 48 hrs by BrdU incorporation assay relative to control. It is filed as functional. The conditions noted are these: MM1.S, read-out: GI.
A short description of series [15]: Cytotoxicity against human MM1S cells at 50 ug/ml after 24 hrs by BrdU incorporation assay relative to control. It is filed as functional. The conditions noted are these: MM1.S, read-out: GI.
Series [16] can be described thus: Cytotoxicity against human HSF cells at 50 ug/ml after 48 hrs by BrdU incorporation assay relative to control. It is filed as cell-based. The conditions noted are these: read-out: GI.
The nature of series [17]: Cytotoxicity against human MM1R cells at 50 ug/ml after 72 hrs by BrdU incorporation assay relative to control. It is filed as functional. The conditions noted are these: MM.1R, read-out: GI.
Series [18] relates to T47D. Description: Cytotoxicity against human T47D cells at 50 ug/ml after 24 hrs by BrdU incorporation assay relative to control. It is filed as functional. As to conditions: read-out: GI.
Series [19] in a line: Cytotoxicity against human MM1R cells at 50 ug/ml after 24 hrs by BrdU incorporation assay relative to control. It is filed as functional. The conditions noted are these: MM.1R, read-out: GI.
Series [20] is described as follows: Selectivity ratio for human RPMI8226 cells over human HSF cells. The conditions noted are these: RPMI8226 cells versus HSF cells. It is filed as ADME, cell-based, RPMI-8226.
For series [21], the system named is HeLa. Description: Induction of apoptosis in human HeLa cells at 50 ug/ml after 48 hrs by propidium iodide/Hoechst 33342 staining-based confocal microscopy (reference value: 5%). It is filed as functional.
Series [22] relates to T47D. The series is described as follows: Induction of necrosis in human T47D cells at 50 ug/ml after 72 hrs by propidium iodide/Hoechst 33342 staining-based confocal microscopy (reference value: 10%). It is filed as functional.
Series [23] is described as follows: Induction of necrosis in human HSF cells at 50 ug/ml after 24 hrs by propidium iodide/Hoechst 33342 staining-based confocal microscopy (reference value: 2%). It is filed as cell-based.
Series [24] in a line: Induction of necrosis in human HSF cells at 50 ug/ml after 48 hrs by propidium iodide/Hoechst 33342 staining-based confocal microscopy (reference value: 4%). It is filed as cell-based.
In series [25] the test system is T47D. Description: Induction of apoptosis in human T47D cells at 50 ug/ml after 72 hrs by propidium iodide/Hoechst 33342 staining-based confocal microscopy (reference value: 5%). It is filed as functional.
Series [26] has as its system HeLa. The series is described as follows: Induction of necrosis in human HeLa cells at 50 ug/ml after 24 hrs by propidium iodide/Hoechst 33342 staining-based confocal microscopy (reference value: 5%). It is filed as functional.
Series [27] concerns T47D. Description: Induction of necrosis in human T47D cells at 50 ug/ml after 24 hrs by propidium iodide/Hoechst 33342 staining-based confocal microscopy (reference value: 5%). It is filed as functional.
The nature of series [28]: Induction of apoptosis in human HSF cells at 50 ug/ml after 48 hrs by propidium iodide/Hoechst 33342 staining-based confocal microscopy (reference value: 5%). It is filed as cell-based.
In series [29] the test system is HeLa. The series is described as follows: Induction of necrosis in human HeLa cells at 50 ug/ml after 72 hrs by propidium iodide/Hoechst 33342 staining-based confocal microscopy (reference value: 10%). It is filed as functional.
Series [30] can be described thus: Induction of apoptosis in human HSF cells at 50 ug/ml after 24 hrs by propidium iodide/Hoechst 33342 staining-based confocal microscopy (reference value: 2%). It is filed as cell-based.
Series [31] in a line: Induction of apoptosis in human HSF cells at 50 ug/ml after 72 hrs by propidium iodide/Hoechst 33342 staining-based confocal microscopy (reference value: 5%). It is filed as cell-based.
For series [32], the system named is T47D. Description: Induction of necrosis in human T47D cells at 50 ug/ml after 48 hrs by propidium iodide/Hoechst 33342 staining-based confocal microscopy (reference value: 8%). It is filed as functional.
Series [33] deals with HeLa. The series is described as follows: Induction of necrosis in human HeLa cells at 50 ug/ml after 48 hrs by propidium iodide/Hoechst 33342 staining-based confocal microscopy (reference value: 10%). It is filed as functional.
The test system of series [34] is T47D. Description: Induction of apoptosis in human T47D cells at 50 ug/ml after 48 hrs by propidium iodide/Hoechst 33342 staining-based confocal microscopy (reference value: 2%). It is filed as functional.
The subject of series [35] is HeLa. The series is described as follows: Induction of apoptosis in human HeLa cells at 50 ug/ml after 24 hrs by propidium iodide/Hoechst 33342 staining-based confocal microscopy (reference value: 2%). It is filed as functional.
Series [36] in a line: Induction of necrosis in human HSF cells at 50 ug/ml after 72 hrs by propidium iodide/Hoechst 33342 staining-based confocal microscopy (reference value: 5%). It is filed as cell-based.
Series [37] deals with T47D. The series is described as follows: Induction of apoptosis in human T47D cells at 50 ug/ml after 24 hrs by propidium iodide/Hoechst 33342 staining-based confocal microscopy (reference value: 2%). It is filed as functional.
In series [38] the test system is HeLa. The series is described as follows: Induction of apoptosis in human HeLa cells at 50 ug/ml after 72 hrs by propidium iodide/Hoechst 33342 staining-based confocal microscopy (reference value: 5%). It is filed as functional.
Series [39] can be described thus: Toxicity in ip dosed albino-Swiss mouse. It is filed as organism-based. The conditions noted are these: in vivo.
A short description of series [40]: Selectivity ratio for human T47D cells over human HSF cells after 72 hrs. It is filed as ADME, cell-based. As to conditions: T47D cells versus HSF cells.

SMILES strings stand for the structures.

On to `O=c1c(-c2ccco2)nnc2n1CCN2c1ccccc1Cl`, for which the selectivity ratio at 48 h in [1] was found to be 4. For the same compound, the selectivity ratio at 24 h in [2] was found to be 8. Moreover, the selectivity ratio at 72 h in series [3] amounted to 5.

Turning to `CCOC(=O)Cc1nnc2n(c1=O)CCN2c1ccc(Cl)cc1`, the inhibition at 72 h, 50 ug/ml in series [4] stood at 80%. Moreover, the inhibition of growth at 50 µg/mL in [5] came to 50%; in series [6], 20%; in series [7], 90%; in series [10], 50%; in series [11] it was 40%; in series [12] it was 85%. In addition, the inhibition of growth at 50 µg/mL was found to be 30% in series [13]; 75% in series [14]; 45% in series [15]; 90% in series [17]; 50% in series [18]; 80% in series [19]. Further, the inhibition at 24 h, 50 ug/ml in series [8] is 50%. For the same compound, the Activity entry in [9] is recorded as “tde”. Further, in series [16], the inhibition at 48 h, 50 ug/ml was found to be 75%.

Turning to `O=c1c(-c2ccccc2)nnc2n1CCN2c1cccc(Cl)c1`, the selectivity ratio in [20] turned out to be 1.5.

For the compound `O=c1c(-c2ccco2)nnc2n1CCN2c1c(Cl)cccc1Cl`, the selectivity ratio at 48 h in series [1] is above 5. Also, in series [2], the selectivity ratio at 24 h is 8. For the same compound, the selectivity ratio at 72 h in series [3] is above 6.

For `CCOC(=O)Cc1nnc2n(c1=O)CCN2c1ccccc1`, the inhibition at 72 h, 50 ug/ml in series [4] is 50%. For the same compound, the Activity is recorded as 15% in series [21]; 85% in series [22]; 25% in [23]; 50% in series [24]; 10% in [25]; 20% in [26]. The Activity in series [27] is listed as 40%; in [28], 5%; in series [29], 80%; in [30], 5%; in series [31], 8%; in series [32] it was 80%. The Activity stood at 75% in [33]; 10% in series [34]; 10% in [35]; 50% in series [36]; 5% in series [37]; 15% in series [38]. In addition, the inhibition of growth at 50 µg/mL in series [5] worked out at 85%; in series [6] it was 20%; in [7] it was 80%; in series [10], 80%; in series [11], 75%; in [12] it was 85%. Further, the inhibition of growth at 50 µg/mL in series [13] turned out to be 75%; in series [14] it was 30%; in series [15] it was 25%; in series [17], 90%; in series [18] it was 40%; in series [19], 80%. The inhibition at 24 h, 50 ug/ml in series [8] is 25%. Besides, in series [16], the inhibition at 48 h, 50 ug/ml was found to be 50%.

In the case of `CCOC(=O)Cc1nnc2n(c1=O)CCN2c1ccc(Cl)c(Cl)c1`, the inhibition at 72 h, 50 ug/ml in series [4] came out at 70%. For the same compound, the Activity in series [21] is on record as 10%; in [22], 50%; in [23], 50%; in series [24], 60%; in series [25], 20%; in [26] it was 45%. Besides, the Activity came to 25% in series [27]; 10% in series [28]; 80% in [29]; 10% in [30]; 12% in series [31]; 45% in series [32]. The Activity in [33] came out at 45%; in series [34] it was 10%; in [35], 10%; in [36], 70%; in series [37], 15%; in series [38], 15%. For the same compound, the inhibition of growth at 50 µg/mL in series [5] is 50%; in series [6], 45%; in [7], 80%; in [10] it was 40%; in series [11], 80%; in series [12] it was 80%. For the same compound, the inhibition of growth at 50 µg/mL worked out at 45% in series [13]; 65% in series [14]; 40% in series [15]; 90% in series [17]; 25% in series [18]; 65% in [19]. For the same compound, the inhibition at 24 h, 50 ug/ml in series [8] worked out at 50%. Further, the inhibition at 48 h, 50 ug/ml in series [16] was 60%.

The LD50 is the dose expected to kill half of the subjects tested. The low end stands for a more toxic substance, the high end for a less toxic substance. Consider `O=c1c(-c2ccccc2)nnc2n1CCN2c1ccc(Cl)cc1`, for which the median lethal dose (LD50) in series [39] is above 2000 mg/kg.

As for `COc1ccccc1N1CCn2c1nnc(-c1ccco1)c2=O`, the values for the selectivity ratio at 72 h in series [40] and in series [3] were 14 and 16, respectively.

On to `COc1ccc(N2CCn3c2nnc(-c2ccccc2)c3=O)cc1`, for which the selectivity ratio in [20] was 1.7. In [39], this compound came in with a median lethal dose (LD50) above 2000 mg/kg.

The values above are taken from ChEMBL document CHEMBL3091361, “Synthesis, structure elucidation and in vitro anticancer activities of novel derivatives of diethyl (2E)-2-[(2E)-(1-arylimidazolidin-2-ylidene)hydrazono]succinate and ethyl (4-oxo-8-aryl-4,6,7,8-tetrahydroimidazo[2,1-c][1,2,4]triazin-3-yl)acetate” (Bioorg Med Chem, 2013).
